Measured values as given in patent US20100317607A1, “USE OF COMPOUNDS FOR PREPARING ANTI-TUBERCULOSIS AGENTS” (INFECTIOUS DISEASE RESEARCH INSTITUTE, priority 2007, published 2010).
Converted amounts (≈) assume the structure as drawn.

Legend:
[1] = system: non replicating phase of M. tuberculosis (H37Rv with a plasmid with an acetimidase promoter driving a luciferase gene); assay: microbe, parasite or virus in culture; format: cell-based; details: non replicating M. tuberculosis H37Rv luciferase strain; for MIC: Mycobacterium tuberculosis, read-out: LORA (TB growth inhibition, MIC)
[2] = system: H37Rv strain of M. tuberculosis; assay: Alamar Blue Susceptibility Test (MABA); format: cell-based; details: H37Rv strain of M. tuberculosis, Alamar Blue; for MIC: Mycobacterium tuberculosis, read-out: MABA (TB growth inhibition, colourimetric assay)

Compound: COC(=O)c1ccc(CNc2nc(N3CCCCC3)nc3ccccc23)cc1 [Compound 93, Methyl 4-((2-(piperidin-1-yl)quinazolin-4-ylamino)methyl)benzoate]
- MIC [1]: 50 to 128 µM (≈ 18.8 to 48.2 µg/mL)
- MIC [2]: < 10 µM

Compound: c1ccc(CNc2cc(N3CCCCC3)nc3ccccc23)cc1 [Compound 54, N-Benzyl-2-(piperidin-1-yl)quinolin-4-amine]
- MIC [1]: < 10 µM
- MIC [2]: < 10 µM

Compound: CC(Nc1nc(N2CCN(S(=O)(=O)c3ccccc3)CC2)nc2ccccc12)c1ccccc1 (stereo not drawn) [Compound 15, N-(1-Phenylethyl)-2-(4-(phenylsulfonyl)piperazin-1-yl)quinazolin-4-amine]
- LORA (TB growth inhibition, MIC) [1]: −
- MIC [2]: 50 to 128 µM (≈ 23.7 to 60.6 µg/mL)

Compound: CC(Nc1nc(N2CCCCC2)nc2ccccc12)c1ccccc1 (stereo not drawn) [Compound 12, N-(1-Phenylethyl)-2-(piperidin-1-yl)quinazolin-4-amine]
- MIC [1]: 10 to 50 µM (≈ 3.32 to 16.6 µg/mL)
- MIC [2]: 10 to 50 µM (≈ 3.32 to 16.6 µg/mL)

Compound: c1ccc(CCNc2nc(N3CCCCC3)nc3ccccc23)cc1 [Compound 33, N-Phenethyl-2-(piperidin-1-yl)quinazolin-4-amine]
- MIC [1]: 10 to 50 µM (≈ 3.32 to 16.6 µg/mL)
- MIC [2]: < 10 µM

Compound: CN(Cc1ccccc1)c1nc(N2CCCCC2)nc2ccccc12 [Compound 35, N-Benzyl-N-methyl-2-(piperidin-1-yl)quinazolin-4-amine]
- MIC [1]: < 10 µM
- MIC [2]: < 10 µM

Compound: c1ccc(CNc2nc(N3CCCCC3)c3ccccc3n2)cc1 [Compound 24, N-Benzyl-4-(piperidin-1-yl)quinazolin-2-amine]
- MIC [1]: 10 to 50 µM (≈ 3.18 to 15.9 µg/mL)
- MIC [2]: 10 to 50 µM (≈ 3.18 to 15.9 µg/mL)

Compound: CC(Nc1nc(N2CCNCC2)nc2ccccc12)c1ccccc1 (stereo not drawn) [Compound 8, N-(1-Phenylethyl)-2-(piperazin-1-yl)quinazolin-4-amine]
- MIC [1]: 10 to 50 µM (≈ 3.33 to 16.7 µg/mL)
- MIC [2]: 50 to 128 µM (≈ 16.7 to 42.7 µg/mL)

Compound: c1ccc2c(NC3C4CC5CC(C4)CC3C5)nc(N3CCCCC3)nc2c1 (stereo not drawn) [Compound 60, N-(2′-Adamantyl)-2-(piperidin-1-yl)quinazolin-4-amine]
- LORA (TB growth inhibition, MIC) [1]: ++++ (key: TB growth<10 μM=++++; 10-50 μM=+++; 50-128 μM=++; >128 μM but inhibited=+; no inhibition=−)
- MABA (TB growth inhibition, colourimetric assay) [2]: +++ (10-50 μM=+++)
